Laboratory results published in publication PMC12622015 (bioRxiv, 2025).

Molecular target: T1, IRAK4 (Homo sapiens, UniProt Q9NWZ3)
T1 sequence (Q9NWZ3 1-460): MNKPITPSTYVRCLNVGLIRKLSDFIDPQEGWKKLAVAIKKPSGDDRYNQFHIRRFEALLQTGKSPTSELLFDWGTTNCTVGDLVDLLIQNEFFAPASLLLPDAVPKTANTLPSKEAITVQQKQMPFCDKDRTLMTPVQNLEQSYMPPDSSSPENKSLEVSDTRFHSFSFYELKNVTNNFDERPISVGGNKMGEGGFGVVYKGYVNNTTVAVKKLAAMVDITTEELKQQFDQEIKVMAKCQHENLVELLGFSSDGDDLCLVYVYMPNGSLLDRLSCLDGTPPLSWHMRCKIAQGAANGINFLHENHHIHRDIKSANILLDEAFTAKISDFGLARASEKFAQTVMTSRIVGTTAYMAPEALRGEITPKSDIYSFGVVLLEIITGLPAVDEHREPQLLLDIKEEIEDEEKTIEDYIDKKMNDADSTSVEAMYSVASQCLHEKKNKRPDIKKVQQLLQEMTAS
Assay: HotSpot kinase assay
Assay type: biochemical

IC50: 2.83 nM
SMILES: COc1cc(N2CCN(C(=O)CCCC(=O)Nc3cccc4c3CN(C3CCC(=O)NC3=O)C4=O)CC2)ccc1NC(=O)c1cccc(-c2cc[nH]n2)n1 (stereo not shown) [PSP-0119, N-(4-(4-(5-((2-(2,6-dioxopiperidin-3-yl)-1-oxoisoindolin-4-yl)amino) −5-oxopentanoyl)piperazin-1-yl)-2-methoxyphenyl)-6-(1H-pyrazol-3-yl)picolinamide]
